Data on 6 compounds can be found in article PMC8911699, “Biological and Cheminformatics Studies of Newly Designed Triazole Based Derivatives as Potent Inhibitors against Mushroom Tyrosinase” (Molecules, 2022).

pKi: −log10 of the molar value. “Also recorded” adds a separate entry of the source.

Data set [1] addresses T1, mushroom tyrosinase (Agaricus bisporus, UniProt C7FF04). The data set can be described thus: Mushroom tyrosinase inhibition assay (dopachrome technique, L-DOPA substrate). It is filed as biochemical. On the procedure: The inhibition of mushroom tyrosinase was determined by an alteration of the dopachrome technique using L-DOPA as a substrate. The mushroom tyrosinase (EC-232-653-4) was purchased from Sigma Korea. […] After the incubation time, the absorbance was measured at 475 nm using a microplate reader (SpectraMax ABS, Molecular Devices, California, CA, USA) and the inhibition percentage was calculated in relation to the control. […] Each concentration was scrutinized in three independent experiments. IC50 values were calculated by non-linear regression using GraphPad Prism 5.0. The % inhibition of tyrosinase was calculated as follows:Inhibition (%) = [(B−S)/B] ×100 where the B and S are the absorbances of the blank control and normal samples, respectively.
Target sequence in this assay (C7FF04 2-392): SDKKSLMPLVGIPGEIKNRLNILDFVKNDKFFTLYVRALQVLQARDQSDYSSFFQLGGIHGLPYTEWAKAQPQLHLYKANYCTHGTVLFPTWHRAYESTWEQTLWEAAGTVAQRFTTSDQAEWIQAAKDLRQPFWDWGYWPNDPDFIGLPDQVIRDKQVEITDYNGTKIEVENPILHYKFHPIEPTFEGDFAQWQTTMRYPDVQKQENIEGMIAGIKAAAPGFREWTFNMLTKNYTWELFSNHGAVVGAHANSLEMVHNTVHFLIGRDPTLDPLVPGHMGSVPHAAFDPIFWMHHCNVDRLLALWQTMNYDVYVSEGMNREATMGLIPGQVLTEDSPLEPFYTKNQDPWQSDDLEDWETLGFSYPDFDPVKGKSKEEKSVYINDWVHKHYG

The target of data set [2] is T1, mushroom tyrosinase. The data set can be described thus: Inhibition kinetics (Lineweaver-Burk and secondary plots). It is filed as biochemical. Details: purchased Sigma Korea EC-232-653-4. On the procedure: To understand the inhibitory mechanism of synthetic compounds on tyrosinase, an inhibition kinetic study was performed. […] The kinetic results of the enzyme expressed by the Lineweaver–Burk plot of 1/V versus 1/[S] for different inhibitor concentrations provided a series of straight lines. […] Additionally, the Km value increased with increasing the concentration of the inhibitor. […] The inhibition constant Ki was computed from Figure 4.
A series of experiments were performed to regulate the inhibition kinetics of 9h by following the already reported methods. The inhibitor concentrations for 9h were 0.00, 0.049, 0.098, and 0.196 µM. Substrate (L-DOPA) concentrations were between 0.0625 to 2 mM in all kinetic studies. Pre-incubation and measurement time were the same as discussed in the mushroom tyrosinase inhibition assay protocol. Maximal initial velocity was obtained from the initial linear portion of absorbance up to five minutes after the addition of enzyme at the 30 s interval. The inhibition type of the enzyme was assayed by Lineweaver–Burk plots of the inverse of velocities (1/V) versus the inverse of substrate concentration 1/[S] mM^−1.
Target sequence in this assay (C7FF04 1-392 limits assumed): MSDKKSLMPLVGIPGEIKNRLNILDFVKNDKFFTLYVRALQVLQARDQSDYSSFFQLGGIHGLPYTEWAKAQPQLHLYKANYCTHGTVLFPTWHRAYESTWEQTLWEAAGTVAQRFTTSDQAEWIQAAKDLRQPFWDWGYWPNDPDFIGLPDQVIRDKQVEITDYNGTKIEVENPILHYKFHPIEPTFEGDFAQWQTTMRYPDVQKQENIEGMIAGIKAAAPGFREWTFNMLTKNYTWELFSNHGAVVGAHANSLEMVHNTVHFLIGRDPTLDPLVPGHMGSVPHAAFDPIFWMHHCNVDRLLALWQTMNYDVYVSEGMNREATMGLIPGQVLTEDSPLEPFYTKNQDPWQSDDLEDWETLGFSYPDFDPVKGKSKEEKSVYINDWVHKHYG

Usually melting point stands for the temperature of the solid-liquid transition. Turning to `O=C(CSc1nnc(-c2ccccc2)n1-c1ccc(F)cc1)Nc1ccc(F)cc1` [9e, N-(4-fluorophenyl)-2-(4-(4-fluorophenyl)-5-phenyl-4H-1,2,4-triazol-3-ylthio) Acetamide], the melting point was found to be 220.1 °C.
For `O=C(CSc1nnc(-c2ccccc2F)n1-c1ccc(F)cc1)Nc1ccc(Br)cc1` [9i, N-(4-bromophenyl)-2-(5-(2-fluorophenyl)-4-(4-fluorophenyl)-4H-1,2,4-triazol-3-ylthio) Acetamide], the melting point was 248.9 °C. Besides, the “response against mushroom tyrosinase inhibition (in words)” value in data set [1] is recorded as “did not show any response”.
For orientation: pKi means the Ki on a negative log10 scale, so that one unit is a factor of ten. Turning to `O=C(CSc1nnc(-c2ccccc2F)n1-c1ccc(F)cc1)Nc1ccc(F)cc1` [9h, N-(4-fluorophenyl)-2-(5-(2-fluorophenyl)-4-(4-fluorophenyl)-4H-1,2,4-triazol-3-ylthio) Acetamide], in data set [2] (Lineweaver-Burk plot, Vmax same, Km increased), the inhibition type result is “competitively inhibits”. Further, the pKi in data set [2] (from plot of slope versus inhibitor concentration, L-DOPA 0.0625-2 mM, read-out: inhibition constant Ki) is 7.74.
Consider `O=C(CSc1nnc(-c2ccccc2)n1-c1ccc(F)cc1)Nc1ccccc1` [9d, 2-(4-(4-Fluorophenyl)-5-phenyl-4H-1,2,4-triazol-3-ylthio)-N-phenylacetamide], for which the melting point was 206 °C.
In turn, `O=C(CSc1nnc(-c2ccc(F)cc2)n1-c1ccc(F)cc1)Nc1ccc(F)cc1` [9b, 2-(4,5-Bis(4-fluorophenyl)-4H-1,2,4-triazol-3-ylthio)-N-(4-fluorophenyl) Acetamide] yielded a melting point of 195.3 °C. For the same compound, the “response against mushroom tyrosinase inhibition (in words)” value in data set [1] is “did not show any response; also recorded: ineffective counter response”.
`O=C(CSc1nnc(-c2ccc(F)cc2)n1-c1ccc(F)cc1)Nc1ccc(Br)cc1` [9c, 2-(4,5-Bis(4-fluorophenyl)-4H-1,2,4-triazol-3-ylthio)-N-(4-bromophenyl) Acetamide] gave a melting point of 219.3 °C. Moreover, the “response against mushroom tyrosinase inhibition (in words)” value in data set [1] is recorded as “did not show any response; also recorded: ineffective counter response”.
